This experiment deals with T1, Caspase-3 (Homo sapiens, UniProt P42574).
T1 sequence (P42574 whole entry): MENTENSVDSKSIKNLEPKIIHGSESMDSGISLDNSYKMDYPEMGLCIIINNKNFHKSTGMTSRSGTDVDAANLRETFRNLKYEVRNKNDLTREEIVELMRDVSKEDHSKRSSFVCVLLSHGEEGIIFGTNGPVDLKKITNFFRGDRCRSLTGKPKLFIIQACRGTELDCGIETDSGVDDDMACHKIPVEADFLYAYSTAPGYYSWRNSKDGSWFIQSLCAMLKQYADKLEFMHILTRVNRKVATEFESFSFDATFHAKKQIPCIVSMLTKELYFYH
The experiment in a line: activation of caspase-3 zymogen – biochemical, absorbance, dose response (AID 489014).

Each structure is given as a SMILES string.

By EC50 is commonly meant the concentration needed to bring the measured effect to its halfway point. High values mean a need for much substance, low ones an effect from little substance.

As to `O=c1c2c(-c3ccccc3)[nH]n(-c3ccccc3)c-2c(O)n1-c1ccccc1` [SMR000269383], the EC50 is more than 85.3 µM.

The compound `O=C(CC1=NC2(CCCC2)Cc2ccccc21)C(=O)NN=Cc1ccccc1O` [SMR000219463] yielded an EC50 of more than 85.3 µM.

Values taken from BindingDB's records for doi:10.7270/Q2Z31X4P (The Scripps Research Institute Molecular Screening Center, 2010).
